Experimental data taken from patent publication US10947285B2, “Compounds, compositions and uses thereof for improvement of bone disorders” (Amolyt Pharma, priority 2017, dated 2021).
Residues, ends and D or L forms follow the SMILES beside them. No end group written: not given here. *: point of attachment. Stearoyl = CCCCCCCCCCCCCCCCCC(=O)*

Assays:
[1] = Pharmacokinetic of HBD1 fragments in male Sprague Dawley rats after intravenous and subcutaneous injection; type: in vivo; details: 1 μmol net peptide/kg; for quantifiable exposure after administration by either dose route: iv and sc
Method: The peptides were reconstituted in saline (0.9% NaCl). Three male Sprague Dawley rats were used per group. Intravenous doses were administered into a lateral tail vein at the dose of 1 μmol net peptide/kg. Subcutaneous doses were administered into the right flank of each animal, also at the dose of 1 μmol net peptide/kg. Following dosing, serial whole blood samples (ca. 0.25 mL) were collected from a lateral tail vein into K2EDTA treated containers. Following each blood sample collection, samples were placed into a cooling block at 4° C. Samples were collected prior to dosing then at 2, 5, 15 and 30 minutes then 1, 2, 4, 6 and 8 and 24 hours post dose for intravenous injection and at 15 and 30 minutes then 1, 2, 4, 6, 8 and 24 hours post dose for subcutaneous injection.
Blood samples were centrifuged at 10000×g for 2 minutes at 4° C. and resultant plasma aspirated off into clean fully, labelled tubes. Plasma samples were snap frozen following aspiration then stored at −80° C. Peptides were extracted and analyzed as described in Example 9. The limits of quantification of these methods were 0.001 nmol/mL for cyclic HBD1 (3-11) and HBD1 (3-11) and 0.003 nmol/mL for HBD1 (1-13). All values below these limits of quantification were considered as zero.

[2] = Stability of HBD1 fragments in human plasma; type: in vitro ADME; details: 24 and 48 hours incubation at 37° C.
Method: The peptides were spiked at 1 μg/mL (peptide backbone) into pre-warmed human K2EDTA plasma (at 37° C.) and incubated for up to 48 hours. Aliquots of plasma were extracted at specific time points (0, 24 and 48 hours post spike). Extraction was performed with acetonitrile:water (75:25, v/v) for HBD1 (1-13), HBD1 (1-13) with palmitic acid at the N-terminus (C16:0), HBD1 (3-11) with palmitic acid at the N-terminus (C16:0)) and HBD1 (3-11) with stearic acid at the N-terminus (C18:0) or with acetonitrile:water:formic acid (75:25:0.1, v/v/v) for HBD1 (3-11) and cyclic HBD1 (3-11). The peptides were analyzed using developed LC (C18 reverse phase column)—positive ion electrospray MS/MS methods specific to each peptide. The peak area at each time point was expressed as a percentage of the value obtained for the t=0 minutes time point.

[3] = tested on: ovariectomized (OVX) rats; experiment: Bone formation in ovariectomized rat, μCT of proximal tibia; type: in vivo, Sprague-Dawley rats; details: 6 weeks
Method: (§1) Effects on bone of three doses of HBD1 (3-11) with stearic acid at the N-terminus (C18:0) analog were tested in vivo in ovariectomized (OVX) rats, a recognized model for human osteoporosis, in particular postmenopausal osteoporosis. Each group included ten female Sprague-Dawley rats that were four months of age at the beginning of the in-life phase of the study. Treatment started six weeks after OVX surgery and lasted for six additional weeks. Groups were randomized before surgery according to body weight and tibial metaphysis Bone Mineral Density (BMD) as measured by peripheral quantitative computed tomography (pQCT) from Norland Stratec XCT Research SA equipment (Norland Stratec Medizintechnik, Birkenfeld, Germany).
(§2) The peptide was reconstituted in saline solution (0.9% NaCl) and administered subcutaneously twice a day at the doses of 0.8 mg/kg (low), 1.6 mg/kg (med) or 3.2 mg/kg (high) in a volume of 1 mL/kg. The control group was administered twice a day with saline by s.c. administration. Rats were weighed once a week and the volume of dosing solution administered was adjusted accordingly.
High-resolution micro-computed tomography (μCT) measurements using Sky Scan 1072 or 1172 High Resolution Scanner (Bruker microCT, Kontich, Belgium) were performed ex vivo in right proximal tibia at the end of the treatment period for measuring bone volume, bone cross-sectional dimensions and bone microarchitecture. FIGS. 5A, 5B and 5C show the percent increase from OVX animals HBD1 (3-11) with stearic acid at the N-terminus (C18:0) groups for following selected parameters: Bone Volume Fraction (BV/TV; %), Trabecular number (Tb.N; mm^−1) and Connectivity Density (Conn.D; mm^−3).

[4] = Pharmacokinetic in Göttingen minipigs after intravenous and subcutaneous injection; type: in vivo; details: 0.5 μmol/kg
Method: The peptide was reconstituted in saline (0.9% NaCl). Three Göttingen minipigs (approximately 8-10 months of age) were used per group. Intravenous doses were administered into an ear vein at the dose of 0.5 μmol net peptide/kg. Subcutaneous doses were administered into the right flank of each animal, also at the dose of 0.5 μmol net peptide/kg. Following dosing, serial whole blood samples (ca. 0.25 mL) were collected from a jugular vein into K2EDTA treated containers. Following each blood sample collection, samples were placed into a cooling block at 4° C. Samples were collected prior to dosing then at 5 and 30 minutes then 1, 2, 4, 8, 25, 48, 72 and 96 hours post dose for intravenous injection and at 15 and 30 minutes then 1, 2, 4, 8, 25, 48, 72 and 96 hours post dose for subcutaneous injection.
Blood samples were centrifuged at 10000×g for 2 minutes at 4° C. and resultant plasma aspirated off into clean fully, labelled tubes. Plasma samples were snap frozen following aspiration then stored at −80° C. Peptide extraction and analysis were performed as described in Example 9. The limit of quantification of this method is 0.0015 nmol/mL. All values below this limit of quantification are considered as zero.

[5] = tested on: ovariectomized (OVX) rats; experiment: Bone biomechanical properties in ovariectomized rat (lumbar vertebrae compression, femoral neck cantilever bending); type: in vivo, Sprague-Dawley rats; details: 3.2 mg/kg BID s.c., 6 weeks, vs OVX vehicle
Method: as §1, §2
Bone biomechanical properties were determined by compression test using Instron 3343 biomechanical testing system (Instron, Norwood, Mass., USA). […]

[6] = OVX rats, s.c. twice a day 0.8, 1.6 or 3.2 mg/kg, vs OVX vehicle, dose-dependent

Molecule: KHHLGLEEPKKLR [SEQ ID NO: 1, KHHLGLEEPKKLR, reference compound]
- quantifiable exposure after administration by either dose route [1]: no quantifiable exposure
- stability in human plasma (in words) [2]: markedly degraded in human plasma

Molecule: CCCCCCCCCCCCCCCCCC(=O)N[C@@H](Cc1c[nH]cn1)C(=O)N[C@@H](CC(C)C)C(=O)NCC(=O)N[C@@H](CC(C)C)C(=O)N[C@@H](CCC(=O)O)C(=O)N[C@@H](CCC(=O)O)C(=O)N1CCC[C@H]1C(=O)N[C@@H](CCCCN)C(=O)N[C@@H](CCCCN)C(=O)O [SEQ ID NO: 73, C18:0-HLGLEEPKK] (Stearoyl-HLGLEEPKK-OH; C-terminus assumed)
- effect on bone in ovariectomized rat ([3]; OVX Sprague-Dawley rats, s.c. twice a day, 0.8, 1.6 or 3.2 mg/kg): has anabolic effect on bone
- connectivity density (Conn.D) at tibial metaphysis [3, 6]: increased
- percent bone volume fraction (BV/TV) at tibial metaphysis [3, 6]: increased
- trabecular number (Tb.N) at tibial metaphysis [3, 6]: increased
- duration of exposure after subcutaneous administration [4]: up to 25 hours
- bone strength (biomechanical properties of lumbar vertebrae and femoral neck) [5]: increased bone strength

Molecule: CC(C)C[C@@H]1NC(=O)CNC(=O)[C@H](CC(C)C)NC(=O)[C@H](Cc2c[nH]cn2)NC(=O)[C@H](CCCCN)NC(=O)[C@H](CCCCN)NC(=O)[C@@H]2CCCN2C(=O)[C@H](CCC(=O)O)NC(=O)[C@H](CCC(=O)O)NC1=O [SEQ ID NO: 77, Cyclic (HLGLEEPKK)] (cyclo(EEPKKHLGL))
- Tlast (last time point with detectable peptide) ([1]; iv, listed as Cyclic HBD1 (3-11)): 8 h
- Tlast (last time point with detectable peptide) ([1]; sc, listed as Cyclic HBD1 (3-11)): 4 h
- Tlast (last time point with detectable peptide) ([1]; sc, listed as cyclic HBD1 (3-11)): ≤ 4 h

Molecule: HLGLEEPKK [SEQ ID NO: 10, HLGLEEPKK]
- quantifiable exposure after administration by either dose route [1]: no quantifiable exposure
- stability in human plasma (in words) [2]: very stable in human plasma
